# In patent US11266655B2, “Methods and compositions for treating urea cycle disorders” (Camp4 Therapeutics Corporation, priority 2019, dated 2022):
# Where “and” joins values, the source holds several entries; their conditions need not be identical. Equal entries are not always repeated. Structures can show the parent of a compound that is named as a salt.
# Legend:
# SLC25A13 = experiment: RNA-seq of compound-treated primary human hepatocytes, SLC25A13 expression; assay type: cell-based; details: primary human hepatocytes, triplicate (Table 23, FIG. 15)
# OTC [1] = experiment: HSP90 or HSP70 inhibitors in primary human hepatocytes, OTC mRNA; assay type: cell-based; details: hepatocytes from Donor B, normalized to B2M
# Description: (§1) Additional small molecules that inhibit HSP90 or HSP70 were tested in primary human hepatocytes as described in Example 2. HSP90 or HSP70 inhibitors were tested in triplicate at 0.3 μM and 3 μM. The results are shown as the fold change (mRNA FC) in the mRNA levels of OTC and CPS1 genes after treatment compared to an untreated control (DMSO) and the standard deviation (SD). In addition, a dose titration experiment was performed with selected HSP90 inhibitors. Hepatocytes were incubated with increasing concentrations of HSP90 inhibitors and the changes in OTC and CPS1 expression quantified as previously described.
# (§2) HSP90 and HSP70 inhibitors were compared to confirm the role of HSP90 in modulating OTC and CPS1 expression. Hepatocytes from Donor B were incubated with various HSP90 inhibitors or an HSP70 inhibitor, Pifithrin-μ, and then harvested for mRNA quantification. OTC and CPS1 mRNA levels were normalized to B2M.
# ASS1 = experiment: RNA-seq of compound-treated primary human hepatocytes, ASS1 expression; assay type: cell-based; details: primary human hepatocytes, triplicate (Table 15, FIG. 7)
# SLC25A15 = experiment: RNA-seq of compound-treated primary human hepatocytes, SLC25A15 expression; assay type: cell-based; details: primary human hepatocytes, triplicate (Table 24, FIG. 16A-B)
# CPS1 = experiment: HSP90 or HSP70 inhibitors in primary human hepatocytes, CPS1 mRNA; assay type: cell-based; details: hepatocytes from Donor B, normalized to B2M
# Description: as §1, §2
# OTC [2] = experiment: OTC expression modulated by compounds, OTC/GeoMean of housekeeping genes, DMSO = 1 (Table 3A); assay type: cell-based, human; details: 10 uM final concentration
# NAGS = assay type: cell-based, human; details: 1 μM, primary human hepatocytes, triplicate (Table 21, FIG. 13)
# ARG1 = experiment: RNA-seq of compound-treated primary human hepatocytes, ARG1 expression; assay type: cell-based; details: 10 μM, primary human hepatocytes, triplicate (Table 17, FIG. 9)
SMILES,OTC Expression mRNA FC (OTC [1]; 0.3 uM),OTC Expression mRNA FC (OTC [1]; 3 uM),CPS1 Expression mRNA FC (CPS1; 0.3 uM),CPS1 Expression mRNA FC (CPS1; 3 uM),Max Value (OTC/GeoMean of HKs; DMSO = 1) (OTC [2]),other results
"C=CCNC1=C2C[C@@H](C)C[C@H](OC)[C@H](O)[C@@H](C)/C=C(\C)[C@H](OC(N)=O)[C@@H](OC)/C=C\C=C(/C)C(=O)NC(=CC1=O)C2=O [17-AAG (Tanespimycin), Tanespimycin]",5.01,2.84,1.79,2.51,,Relative SLC25A13 level vs Untreated (±Standard Deviation) (SLC25A13; 0.3 μM): 1.48 ± 0.01; Relative SLC25A13 level vs Untreated (±Standard Deviation) (SLC25A13; 1 μM): 1.40 ± 0.05; Relative SLC25A13 level vs Untreated (±Standard Deviation) (SLC25A13; 3 μM): 1.51 ± 0.09; Relative SLC25A13 level vs Untreated (±Standard Deviation) (SLC25A13; 10 μM): 1.46 ± 0.14; Relative ASS1 level vs Untreated (±Standard Deviation) (ASS1; 0.3 μM): 1.37 ± 0.11; Relative ASS1 level vs Untreated (±Standard Deviation) (ASS1; 1 μM): 1.46 ± 0.07; Relative SLC25A15 level vs Untreated (±Standard Deviation) (SLC25A15; 0.3 μM): 1.48 ± 0.01; Relative SLC25A15 level vs Untreated (±Standard Deviation) (SLC25A15; 1 μM): 1.40 ± 0.05; Relative SLC25A15 level vs Untreated (±Standard Deviation) (SLC25A15; 3 μM): 1.51 ± 0.09; Relative SLC25A15 level vs Untreated (±Standard Deviation) (SLC25A15; 10 μM): 1.46 ± 0.14
CO[C@H]1/C=C\C=C(/C)C(=O)NC2=CC(=O)C(NCCN(C)C)=C(C[C@@H](C)C[C@H](OC)[C@H](O)[C@@H](C)/C=C(\C)[C@@H]1OC(N)=O)C2=O [Alvespimycin hydrochloride],1.94,1.03,1.41,1.54,,
CO[C@H]1/C=C\C=C(/C)C(=O)NC2=CC(=O)C(NCCN(C)C)=C(C[C@@H](C)C[C@H](OC)[C@H](O)[C@@H](C)/C=C(\C)[C@@H]1OC(N)=O)C2=O [Alvespimycin],3.03,1.57,2.33,1.94,,
CC1(C)CC[C@]2(C(=O)O)CC[C@]3(C)[C@H](C(=O)C=C4[C@@]5(C)C=C(C#N)C(=O)C(C)(C)[C@@H]5CC[C@]43C)[C@@H]2C1 [Bardoxolone],,,,,2.76,
N#CC(C#N)=NNc1cccc(Cl)c1 [CCCP],,,,,4.06,
Cc1cc(Nc2cc(CN3CCOCC3)c3nc(C)c(Cc4ccc(Cl)cc4F)n3n2)n[nH]1 [LY2784544],,,,,2.78,
CCNC(=O)c1noc(-c2cc(C(C)C)c(O)cc2O)c1-c1ccc(CN2CCOCC2)cc1 [Luminespib],0.81,3.07,0.86,1.39,,Relative SLC25A13 level vs Untreated (±Standard Deviation) (SLC25A13; 10 μM): 1.55 ± 0.02; Relative NAGS level vs Untreated (±Standard Deviation) (NAGS): 1.32 ± 0.30; Relative SLC25A15 level vs Untreated (±Standard Deviation) (SLC25A15; 3 μM): 1.32 ± 0.24; Relative SLC25A15 level vs Untreated (±Standard Deviation) (SLC25A15; 10 μM): 1.55 ± 0.02 and 1.82 ± 0.08; Relative ARGI level vs Untreated (±Standard Deviation) (ARG1): 1.34 ± 0.07
